Results on seven compounds are retold here after BindingDB's records for doi:10.1016/j.bmc.2010.06.094 (Shahid Beheshti University of Medical Sciences, 2010).

Structures are written as SMILES.

The target in assay [1] is Prostaglandin G/H synthase 1 / COX-1 (Ovis aries) (UniProt P05979). The assay can be described thus: Inhibition of sheep COX1.
Assay [2] has as its target Prostaglandin G/H synthase 2 / COX-2 (Ovis aries) (UniProt P79208). Kind of assay: Inhibition of sheep COX2.

A word on the IC50: it is the concentration needed to halve the response being measured. Lower therefore signals inhibition by little substance.

Compound `CS(=O)(=O)c1ccc(-c2cc(C(=O)O)c3ccccc3n2)cc1` [2-(4-(methylsulfonyl)phenyl)-quinoline-4-carboxylic acid] came in with an IC50 in assay [1] of 13.4 µM. For the compound `CC(=O)Nc1ccc(-c2cc(C(=O)O)c3cc(C(=O)c4ccccc4)ccc3n2)cc1` [2-(4-acetamido)phenyl)-6-benzoyl-quinoline-4-carboxylic acid], the IC50 in assay [1] amounted to 21.8 µM; in assay [2] it was 0.085 µM. Consider `CC(=O)Nc1ccc(-c2cc(C(=O)O)c3cccc(C(=O)c4ccccc4)c3n2)cc1` [2-(4-acetamido)phenyl)-8-benzoyl-quinoline-4-carboxylic acid], for which the half-inhibitory concentration (IC50) amounted to 9.2 µM in assay [1] and 0.08 µM in assay [2].

In the case of `[N-]=[N+]=Nc1ccc(-c2cc(C(=O)O)c3cc(C(=O)c4ccccc4)ccc3n2)cc1` [2-(4-azido)phenyl)-6-benzoyl-quinoline-4-carboxylic acid], the results for the IC50 in assay [1] and in assay [2] were greater than 100 µM and 0.077 µM, respectively. The like results for `[N-]=[N+]=Nc1ccc(-c2cc(C(=O)O)c3cccc(C(=O)c4ccccc4)c3n2)cc1` [2-(4-azido)phenyl)-8-benzoyl-quinoline-4-carboxylic acid] were, in that order, 65.5 µM and 0.057 µM. In the same order, the values of `CS(=O)(=O)c1ccc(-c2cc(C(=O)O)c3cc(C(=O)c4ccccc4)ccc3n2)cc1` [6-benzoyl-2-(4-(methylsulfonyl)phenyl)quinoline-4-carboxylic acid] are 24.4 µM and 0.077 µM. In the case of `CS(=O)(=O)c1ccc(-c2cc(C(=O)O)c3cccc(C(=O)c4ccccc4)c3n2)cc1` [8-benzoyl-2-(4-(methylsulfonyl)phenyl)quinoline-4-carboxylic acid], the half-maximal inhibitory concentration (IC50) in assay [1] came to 15.9 µM; in assay [2] it was 0.069 µM.
